Reference: patent US9585862B2, “Patch containing rivastigmine” (priority 2011, dated 2017)

Experiment: Compatibility test of adhesives mixed with rivastigmine free base (appearance, miscibility, total impurity)
Type: physicochemical
Excerpt: In order to adopt a suitable adhesive for preparing a rivastigmine patch, each of various adhesives was mixed with rivastigmine free base to confirm the appearance, miscibility and compatibility thereof.
For a compatibility test, ten adhesives were used as a candidate material, considering the kind of a polymer and functional group present in the composition of each adhesive, the presence of a crosslinker and a solvent present in the composition. Details of the ten adhesives are shown in Table 2, wherein each product listed under the column “Product name” is an adhesive sold under the respective listed trademark.
Specifically, adhesives containing an acryl- or acrylate-vinylate-based polymer and having no functional group or a hydroxyl or carboxyl group were used. Also, the presence of a crosslinker in the adhesives was evaluated as an important factor to show a compatibility difference. The appearance and miscibility of each adhesive are shown in Table 3, wherein each “Durotak” listed under the column “Ingredient” is a different adhesive sold under the respective trademark.
For example, in the case that the adhesive sold under the trademark DUROTAK 87-202A was used, the color changed to yellow, while in the cases that the adhesives sold under the trademarks DUROTAK 87-2852, 87-2516 and 87-2052 were used, the color changed to brown. The adhesives undergoing a significant color change were commonly confirmed to have a crosslinker.

With CCN(C)C(=O)Oc1cccc([C@H](C)N(C)C)c1 [Rivastigmine base, (S)-N-ethyl-3-[(1-dimethylamino)ethyl]-N-methyl-phenyl-carbamate] the “Miscibility 2 wks” value (active ingredient with adhesive, 2 wks) was “◯”, the “Miscibility Initial” value (active ingredient with adhesive, initial) was “◯” and the “Total impurity (% impurity) 2 wks” value (rivastigmine base alone or mixed with adhesive, 2 wks) was 0.07%. The “Total impurity (% impurity) Initial” value (rivastigmine base alone or mixed with adhesive, initial) was 0.03%.
